Values quoted from earlier work, collected in patent US7423042B2, “Compounds” (Glaxo Group Limited, priority 2005, dated 2008).

Assays:
[1] = system: synthesis of pro-inflammatory proteins including IL-6, IL-8, GM-CSF, RANTES and COX-2; details: a number of different cell types
[2] = system: TGF-β-induced increases in fibronectin and thrombospondin; details: Laping et al., 2002

Row | Structure (SMILES) | decreasing the synthesis of pro-inflammatory proteins (IL-6, IL-8, GM-CSF, RANTES, COX-2) [1] | inhibition of TGF-β-induced increases in fibronectin and thrombospondin [2]
1 | C[S+]([O-])c1ccc(-c2nc(-c3ccncc3)c(-c3ccc(F)cc3)[nH]2)cc1 (stereo not drawn) [SB-203580] | effective | –
2 | COc1nccc(-c2c(-c3ccc(F)cc3)ncn2C2CCNCC2)n1 [SB-242235] | – | inhibited
3 | Fc1ccc(-c2nc3n(c2-c2ccncc2)CCS3)cc1 [SK&F 86002] | effective | –
